Laboratory results reported in patent US5294724A, “4-hydroxytetrahydropyran-2-ones and the corresponding dihydroxycarboxylic acid derivatives, salts and esters and a process for their preparation” (priority 1989, dated 1994).
pIC50: −log10 of the molar value.

Experiments:
HEP G2 cells = test: Inhibition of cholesterol biosynthesis in cell cultures (HEP G2 cells), incorporation of 14C-sodium acetate in cholesterol; type: cell-based; conditions: for pIC50: Homo sapiens, HepG2, sodium salts, test compounds corrected by deviation of mevinolin sodium from its mean value, read-out: IC50 (concentration necessary for a 50% inhibition); for Relative potency in %: mevinolin sodium = 100, from IC50
Experimental: 2) Inhibition of cholesterol biosynthesis in cell cultures (EEP G2 cells)
Determination of the inhibition of the incorporation of ^14 C-sodium acetate in cholesterol
Monolayers of HEP G2 cells in lipoprotein-free medium were preincubated with various concentrations of the sodium salts of the dihydroxycarboxylic acids of the formula II for 1 hour. After adding ^14 C-labeled sodium acetate, the incubation was continued for 3 hours. Tritium-labeled cholesterol was added as an internal standard and an aliquot of the cells was subjected to alkaline hydrolysis. The lipids were extracted using chloroform/methanol 2: 1. After adding carrier cholesterol, the lipid mixture was preparatively separated on TLC plates using chloroform/acetone 9: 1. The cholesterol zone was made visible by staining with iodine vapor, additionally detected using a TLC radio scanner and then scraped off. The amount of ^14 C-cholesterol formed was determined scintigraphically and related to mg of cell protein. The same procedure was carried out with cells from the Bame culture without preincubation with a test compound (so-called "solvent control"). The potency of the test compounds was determined by comparison of the biosynthesized ^14 C-cholesterol in test runs and in "solvent control".

[1] = system: microsomal lipid peroxidation; test: Inhibition of microsomal lipid peroxidation (in vitro); type: biochemical; conditions: for pIC50: microsomes, read-out: IC50 (50% inhibition of lipid peroxidation)
Experimental: 5) Inhibition of microsomal lipid peroxidation (in vitro)
The inhibition of lipid peroxidation was measured under the experimental conditions described by H. Wafers and H. Sies, Eur. J. Biochem. 174, 353-357 (1988). The microsomes were obtained according to the literature cited therein. IC50 denotes the concentration of the test compound in moles per liter which causes a 50% inhibition of lipid peroxidation.

HMG-CoA reductase = biological target: T1, HMG-CoA reductase (Rattus norvegicus, UniProt P51639); test: Inhibition of HMG-CoA reductase activity in solubilized enzyme preparations from rat liver microsomes; type: biochemical; conditions: sodium salts of the dihydroxycarboxylic acids; mean of 3 parallel samples; read-out: IC50 (molar concentration necessary for a 50% inhibition)
T1 construct: solubilized enzyme preparations from liver microsomes of rats; from tissue; host or cells: rat liver microsomes (cholestyramine-induced rats), solubilized
T1 sequence (P51639 1-887): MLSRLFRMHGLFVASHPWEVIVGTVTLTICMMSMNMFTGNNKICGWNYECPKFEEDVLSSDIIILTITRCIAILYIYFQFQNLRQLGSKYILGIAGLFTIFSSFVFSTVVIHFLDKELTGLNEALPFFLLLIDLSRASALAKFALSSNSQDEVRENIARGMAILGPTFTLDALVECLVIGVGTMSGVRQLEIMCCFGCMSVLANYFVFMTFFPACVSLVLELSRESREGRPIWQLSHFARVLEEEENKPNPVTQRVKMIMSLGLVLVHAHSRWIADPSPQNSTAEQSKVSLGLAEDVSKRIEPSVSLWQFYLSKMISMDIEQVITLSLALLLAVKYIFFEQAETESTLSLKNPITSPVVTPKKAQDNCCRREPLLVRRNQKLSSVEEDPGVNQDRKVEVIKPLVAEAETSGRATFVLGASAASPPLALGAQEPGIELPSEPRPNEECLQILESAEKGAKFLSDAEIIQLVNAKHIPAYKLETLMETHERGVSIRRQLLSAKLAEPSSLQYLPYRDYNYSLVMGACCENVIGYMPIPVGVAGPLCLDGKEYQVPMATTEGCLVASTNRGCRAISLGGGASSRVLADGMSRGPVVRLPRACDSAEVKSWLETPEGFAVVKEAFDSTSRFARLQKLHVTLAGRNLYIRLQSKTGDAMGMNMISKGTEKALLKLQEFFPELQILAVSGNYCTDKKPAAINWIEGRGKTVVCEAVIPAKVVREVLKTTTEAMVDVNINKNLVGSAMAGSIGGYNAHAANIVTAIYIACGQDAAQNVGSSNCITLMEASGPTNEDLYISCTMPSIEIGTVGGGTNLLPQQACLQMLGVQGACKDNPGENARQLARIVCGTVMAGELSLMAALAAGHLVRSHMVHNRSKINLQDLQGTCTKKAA
Experimental: 1) Inhibition of HKG-CoA reductase activity in solubilized enzyme preparations from rat liver microsomes
HMG-CoA reductase activity was measured on solubilized enzyme preparations from liver microsomes of rats which had been induced by conversion into the day/night rhythm using cholestyramine (®Cuemid). (S,R)^14 C-HMG-CoA was used as a substrate, and the concentration of NADPH was maintained during the incubation by a regenerating system. The separation of ^14 C-mevalonate from substrate and other products (for example ^14 C-HMG) was carried out by column elution, the elution profile of each individual sample being determined. The regular addition of ^3 H-mevalonate was avoided as the determination gives the data relative to the inhibitory action. The enzyme-free control, the enzyme-containing normal mixture (=100%) and those containing preparation additives were in each case treated together in one series of experiments. The sodium salts of the dihydroxycarboxylic acids of the formula II were always employed as the preparation in this test. Each individual value was formed as the mean value of 3 parallel samples. The significance of the mean value differences between preparation-free and preparation-containing samples was evaluated by the t-test.

serum lipoproteins = test: Action on serum lipoproteins and other metabolic parameters of male rats in the subchronic test; type: in vivo; conditions: rat; for Body weight, % changes in the mean value relative to starting / Food consumption, % changes in the mean value relative to control / Glycerol VLDL, % change compared to control / Liver weight, % changes in the mean value relative to control / Protein LDL, % change compared to control / Protein VLDL, % change compared to control / Total cholesterol HDL, % change compared to control / Total cholesterol LDL, % change compared to control / Total cholesterol VLDL, % change compared to control: 7 administrations; for Cholesterol HDL/LDL: control standardization to 1.00
Experimental: 3) Action on serum lipoproteins and other metabolic parameters of male rats in the subchronic test
Groups of male rats of the strain HOE: WISKf (SPF 71) having a starting weight of above 180 g received the test preparations daily in the morning (sodium salts of the dihydroxycarboxylic acids of the formula II) in polyethylene glycol 400 by stomach tube; the respective control group received only the vehicle. The last (7th) administration was carried out 24 hours before taking blood and sacrificing. There was free access to food and water during the experiment. 24 hours before taking blood, which wall carried out retroorbitally under slight ether anesthesia before and after the treatment period (i.e. on the 1st and 8th day), the food was withdrawn. Total cholesterol was determined in the serum of each individual animal [CHODPAP high performance method of Boehringer Mannheim], and, as a measure of the triglycerides, total glycerol was also determined analytically from the serum pool of all the animals of one group [GPO-PAP high performance method, Boehringer Mannheim].
Immediately after taking blood, the animals were sacrificed by dislocation of the spine, and the relative liver weight, the change in body weight and the food consumption were determined.
For the analysis of the serum lipoproteins, the serum of all the rats of one group was pooled. The serum lipoproteins were separated using the preparative ultracentrifuge.
The following conditions were used for the separation of the fractions VLDL, LDL and HDL:
The determination of the protein was carried out by the method of Lowry et al. [LOWRY O. H., ROSEBOROUGH, N.J., PARR, A. L. and RANDELL, R. J.: J. Biol. Chem. 193, 265 (1951)].

LDL = test: Inhibition of Cu2+-catalyzed LDL oxidation in vitro; type: biochemical, porcine; conditions: 5 μM Cu2+, 2 hours at 37° C.; for pIC50: fluorescence 430 nm, read-out: IC50 (50% inhibition of LDL oxidation)
Experimental: 6) Inhibition of Cu^2+ -catalyzed LDL oxidation in vitro LDL was isolated from porcine plasma which contained EDTA (1 mg/ml) by ultracentrifugation in salt solutions of NaCl/NaBr between the densities 1.019 and 1.063 g/ml (cf. R. J. Havel et al., J. Clin. Invest. 43, 1345 (1955)). LDL was then dialyzed against phosphate-buffered saline (160 mM NaCl, 10 mM NaH2 PO4), pH 7.4 and stored under nitrogen at 4° C. Before the oxidation process, the LDL fractions were diluted to a final protein concentration of 0.1 mg/ml using phosphate-buffered saline and 2.5 ml aliquot parts were pre-incubated under nitrogen with the test compounds (25 μl of ethanolic solution) for 1 hour at 37° C. (cf. McLean et al., Biochemistry 1989, 28, 321). For the Cu^2+ -catalyzed oxidation of LDL, 12.5 μl of a 1 mM CuSO4 solution were added to each sample, a 5 μM Cu^2+ concentration resulting. The incubation was carried out for 2 hours at 37° C. and in an air atmosphere. The fluorescence intensity was measured at 430 nm (excitation wavelength 365 nm) (cf. Steinbrecher, U. P., J. Biol. Chem. 1987, 262, 3603). […] In addition, the inhibition using a 10^-5 N concentration of the test compound is indicated in %.

[2] = 100 mg/kg daily by stomach tube

Row | SMILES | pIC50 (HEP G2 cells) | Relative potency in % (HEP G2 cells) [%] | Inhibition at 10^-5 mol/l [1] [%] | pIC50 (HMG-CoA reductase) | pIC50 [1] | pIC50 (LDL) | other results
1 | O=C(O)C[C@H](O)C[C@H](O)COc1c(-c2ccc(F)cc2)cc(Sc2ccc(F)cc2)cc1C1CC1 [Example 2] | 8.66 | 2273 | < 10 | 8.70 | – | – | –
2 | CC(C)c1cc(Sc2ccccc2)cc(-c2ccc(F)cc2)c1OC[C@@H](O)C[C@@H](O)CC(=O)O [Example 4] | 8.10 | 625 | – | 8.10 | – | – | –
3 | CC(C)Sc1cc(-c2ccc(F)cc2)c(OC[C@@H](O)C[C@@H](O)CC(=O)O)c(C(C)C)c1 [Example 5, Sodium 3(R),S(S)-dihydroxy-6-[(2-p-fluorophenyl-4-isopropylthio-6-isopropyl)phenoxy]hexanoate] | 8.04 | 543 | 0 | 8.10 | – | – | –
4 | CC(C)c1cc(SC(C)(C)Sc2cc(-c3ccc(F)cc3)c(OC[C@@H](O)C[C@@H](O)CC(=O)O)c(C(C)C)c2)cc(-c2ccc(F)cc2)c1O [Example 6, Sodium 3(R),5(S)-dihydroxy-6-(2-isopropyl-4-[(3-isopropyl-4-sodio-oxy-5-p-fluorophenyl-l-phenylthio)-2-propyl-2-thio]-6-p-fluorophenylphenoxy)hexanoate] | 5.77 | 3 | 98 | 8.52 | 5.57 | – | Body weight, % changes in the mean value relative to starting (serum lipoproteins; 30 mg/kg daily by stomach tube): +5%; Food consumption, % changes in the mean value relative to control (serum lipoproteins; 30 mg/kg daily by stomach tube): -1%; Glycerol VLDL, % change compared to control (serum lipoproteins; 30 mg/kg daily by stomach tube): +8%; Liver weight, % changes in the mean value relative to control (serum lipoproteins; 30 mg/kg daily by stomach tube): +3%; Protein LDL, % change compared to control (serum lipoproteins; 30 mg/kg daily by stomach tube): -24%; Protein VLDL, % change compared to control (serum lipoproteins; 30 mg/kg daily by stomach tube): -4%; Total cholesterol HDL, % change compared to control (serum lipoproteins; 30 mg/kg daily by stomach tube): +13%; Total cholesterol LDL, % change compared to control (serum lipoproteins; 30 mg/kg daily by stomach tube): -26%; Total cholesterol VLDL, % change compared to control (serum lipoproteins; 30 mg/kg daily by stomach tube): +12%; Cholesterol HDL/LDL (serum lipoproteins; 30 mg/kg daily): 1.27; Body weight, % changes in the mean value relative to starting (serum lipoproteins; [2]): +5%; Food consumption, % changes in the mean value relative to control (serum lipoproteins; [2]): -1%; Glycerol VLDL, % change compared to control (serum lipoproteins; [2]): -8%; Liver weight, % changes in the mean value relative to control (serum lipoproteins; [2]): +1%; Protein LDL, % change compared to control (serum lipoproteins; [2]): +3%; Protein VLDL, % change compared to control (serum lipoproteins; [2]): -2%; Total cholesterol HDL, % change compared to control (serum lipoproteins; [2]): -3%; Total cholesterol LDL, % change compared to control (serum lipoproteins; [2]): -16%; Total cholesterol VLDL, % change compared to control (serum lipoproteins; [2]): +13%; Cholesterol HDL/LDL (serum lipoproteins; 100 mg/kg daily): 1.15
5 | CC(C)c1cc(SC(C)(C)Sc2cc(-c3ccc(F)cc3)c(OC[C@@H](O)C[C@@H](O)CC(=O)O)c(C(C)C)c2)cc(-c2ccc(F)cc2)c1OC[C@@H](O)C[C@@H](O)CC(=O)O [Example 7, 4,4-(Isopropylidenedithio)-bis-<{1-[(2S,4R)-dihydroxy-5-sodiocarboxy]pentoxy-2-isopropyl-6-p-fluorophenyl}benzene>] | 6.04 | 5 | < 10 | 9.00 | – | – | Body weight, % changes in the mean value relative to starting (serum lipoproteins; [2]): +5%; Glycerol VLDL, % change compared to control (serum lipoproteins; [2]): -3%; Liver weight, % changes in the mean value relative to control (serum lipoproteins; [2]): -1%; Protein LDL, % change compared to control (serum lipoproteins; [2]): -8%; Protein VLDL, % change compared to control (serum lipoproteins; [2]): -15%; Total cholesterol HDL, % change compared to control (serum lipoproteins; [2]): +9%; Total cholesterol LDL, % change compared to control (serum lipoproteins; [2]): -52%; Total cholesterol VLDL, % change compared to control (serum lipoproteins; [2]): -23%; Cholesterol HDL/LDL (serum lipoproteins; 100 mg/kg daily): 2.25
6 | CC(C)c1c(O)c(C(C)C)c(C(C)C)c(OC[C@@H](O)C[C@@H](O)CC(=O)O)c1-c1ccc(F)cc1 [Example 8] | 8.40 | 1250 | 27 | 8.70 | – | 5.96 | –
7 | CC(C)c1cc(Sc2ccc(F)cc2)cc(-c2ccc(F)cc2)c1OC[C@@H]1C[C@@H](O)CC(=O)O1 [Example 10, 4(R)-Hydroxy-6(S)-[(2-p-fluorophenyl-4-p-fluorophenylthio-6-isopropyl)phenoxymethyl]-3,4,5,6-tetrahydro-2H-pyran-2-one] | – | – | – | – | – | < 5.00 | Inhibition at 10^-5 M (LDL; 10^-5 M): 23%
8 | CC(C)c1cc(Sc2ccc(F)cc2)cc(-c2ccc(F)cc2)c1O [Process Example 6, 2-(p-Fluorophenyl)-4-(p-fluorophenylthio)-6-isopropylphenol] | – | – | 95 | – | 5.52 | 6.00 | –
9 | CC(=O)Oc1c(C(C)C)c(-c2ccc(F)cc2)c(O)c(C(C)C)c1C(C)C [Process Example 25, 2,3,5-Triisopropyl-4-acetoxy-6-(p-fluorophenyl)phenol] | – | – | 83 | – | 5.32 | 6.82 | –
